Laboratory results: publication PMC12443555, “Structural modifications to pregnane neurosteroids alter inhibition of LPS/Lipid A binding at the MD-2 activation site within the TLR4 signaling complex” (Frontiers in Immunology, 2025)

Biological target: T1, Myeloid Differentiation factor 2 (MD-2) (Homo sapiens, UniProt Q9Y6Y9)
T1 construct: gene LY96; Recombinant human MD-2 (R&D Systems 1787-MD-050/CF)
T1 sequence (Q9Y6Y9 19-160): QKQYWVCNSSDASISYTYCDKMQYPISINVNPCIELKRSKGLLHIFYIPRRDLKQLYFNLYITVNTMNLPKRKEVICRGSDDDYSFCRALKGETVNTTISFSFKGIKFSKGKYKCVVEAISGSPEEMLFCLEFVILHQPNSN
Assay: SPR competition against Lipid A ([…]) on immobilized MD-2
Format: binding
Conditions: read-out: Inhibition Constant (Ki)

Row | Compound | Ki [nM]
1 | C[C@]12CC[C@@H](O)C[C@@H]1CC[C@@H]1[C@@H]2CC[C@]2(C)[C@@H](C(=O)CO)CC[C@@H]12 [3α,5α-THDOC] | 57.6
2 | C[C@@]1(O)CC[C@H]2[C@H](CC[C@@H]3[C@@H]2CC[C@]2(C)[C@@H](C(=O)Cn4nccn4)CC[C@@H]32)C1 [SGE 516] | 61.3
3 | CC(=O)[C@H]1CC[C@H]2[C@@H]3CCC4=CC(=O)CC[C@]4(C)[C@H]3CC[C@]12C [progesterone] | 49.4
